The record followed here is patent US9464105B2, “Hydroxylated KRN7000 analogue and use thereof” (RIKEN, priority 2012, dated 2016).

The experiment deals with IFN-γ and IL-4 in plasma. As to the kind of experiment: Cytokine content in mouse plasma after intravenous administration of glycolipid (Cytometric Bead Array). Format: in vivo, C57BL/6 mice. As to conditions: tail vein, 100 μg/kg body weight, plasma up to 60 hr (FIG. 1, FIG. 2). As for the experimental part:
Solutions of each of KRN7000, RCAI-147, RCAI-151, and RCAI-160 in dimethyl sulfoxide (DMSO) at a concentration of 1 mg/mL were prepared. The above-mentioned DMSO solutions were diluted 5-fold with 0.5% Tween 20 (Bio-Rad)-containing phosphate buffer (Invitrogen) and further diluted 20-fold with phosphate buffer, such that the dose became 100 μg/kg body weight when 200 μL was administered per mouse from the tail vein.
To three C57BL/6 mice per group was injected each prepared solution (200 μL) of RCAI-147, RCAI-151 and RCAI-160 into the tail vein (administration of about 2 μg per mouse). As a control substance, KRN7000 was used, and a solution (200 μL) of KRN7000 prepared in the same manner such that the dose became 100 μg/kg body weight was injected into the tail vein. The blood (80 μL) immediately before administration, and after lapse of 1, 3, 6, 12, 24, 32, 48 and 60 hr was collected from orbital plexus venosus, and plasma was prepared.
The content of each cytokine in plasma immediately before and after administration of each glycolipid was measured by Cytometric Bead Array (CBA) system (BD Biosciences) which is one of the ELISA methods.
The measurement results (mean) and standard deviation thereof (STDEV) of the content of IFN-γ in plasma immediately before administration, and after lapse of 3, 6, 12, 24, 32, 48 and 60 hr are shown in FIG. 1. The measurement results (mean) and standard deviation thereof (STDEV) of the content of IL-4 in plasma immediately before administration, and after lapse of 1, 3, 6, 12 and 24 hr from the administration are shown in FIG. 2.
Take `CCCCCCCCCCCCCCCCCCCCCCC[C@@H](O)[C@@H](O)C(=O)N[C@@H](COC1OC(CO)C(O)C(O)C1O)[C@H](O)[C@H](O)[C@@H](O)[C@@H](O)CCCCCCCCCCCC` (stereo partly drawn) [RCAI-147, (2S,3S,4S,5S,6S)-2-[(2′R,3′R)-2′,3′-(dihydroxy)hexacosanoylamino]-3,4,5,6-(tetrahydroxy)octadecyl α-D-galactopyranoside]: the “cytokine production induction activity (IFN-γ / IL-4 bias) as compared to KRN7000” value is reported as “cytokine production induction activity biased to the IL-4 as compared to KRN7000”.

Turning to `CCCCCCCCCCCCCCCCCCCCCC[C@@H](O)[C@@H](O)[C@@H](O)C(=O)N[C@@H](CO[C@H]1O[C@H](CO)[C@H](O)[C@H](O)[C@H]1O)[C@H](O)[C@H](O)CCCCCCCCCCCCCC` [RCAI-160, (2S,3S,4R)-2-[(2′R,3′R,4′R)-2′,3′,4′-trihydroxyhexacosanoyl]amino-3,4-di-hydroxyoctadecyl α-D-galactopyranoside], the “cytokine production induction activity (IFN-γ / IL-4 bias) as compared to KRN7000” value is given as “cytokine production induction activity biased to the IL-4 as compared to KRN7000”.

Consider `CCCCCCCCCCCCCCCCCCCCCCC[C@@H](O)[C@@H](O)C(=O)N[C@@H](COC1OC(CO)C(O)C(O)C1O)[C@H](O)[C@H](O)CCCCCCCCCCCCCC` (stereo partly drawn) [RCAI-151, (2S,3S,4R)-3,4-dihydroxy-2-[(2′R,3′R)-2′,3′-dihydroxyhexacosanoylamino]octadecyl α-D-galactopyranoside], for which the “cytokine production induction activity (IFN-γ / IL-4 bias) as compared to KRN7000” value is “cytokine production induction activity biased to the IL-4 as compared to KRN7000”.
